From US20030082135A1, “Pathway of RANTES-mediated chemokine synthesis in astrocytes and methods of use therefor” (priority 2001, published 2003)

Experiments:
[1] = tested on: MEK, ERK1/2, p90RSK, p38, SAPK/JNK phosphorylation in astrocytes; assay: Western blotting of phosphorylated MAP kinase pathway proteins in astrocyte lysates; type: cell-based, mouse
Method: SDS-PAGE and Western blotting. Astrocytes were treated for the indicated time with media or 100 ng/ml RANTES, eotaxin, or other materials as indicated. Cells (3×10^5 in Examples 1-3, or 2×10^4 in later Examples) were resuspended in 100 μl buffer (50 mM HEPES, pH 7.5, 150 mM NaCl, 2 mM EDTA, 2 mM EGTA, 1% Triton X-100, 50 mM Sodium fluoride, 5 mM Sodium pyrophosphate, 50 mM Sodium β-glycerophosphate, 1 mM Sodium Ortho-vanadate, 1 mM DTT, 1 mM PMSF, 10 μg/ml Leupeptin, and 10 μg/ml Aprotinin). Protein concentration of the whole cell extract was determined by BCA protein assay kit (Pierce, Rockford, Ill.). Samples (10 μg) were loaded and separated on a 10% SDS-polyacrylamide gel. After transfer to Hybond ECL nitrocellulose membrane (Amersham Pharmacia Biotech Inc, Piscataway, N.J.) or Zeta-probe blotting membranes (Bio-Rad, Richmond Calif.) blots were blocked overnight with 5% BSA at 4° C., and probed with the antibody indicated. Antibody against unphosphorylated or phosphorylated erk (Cell Signaling, Beverly, Mass.) was used at 1 μg/ml. Appropriate anti-immunoglobulin reagents were used to develop the blots by enhanced chemiluminescence (Amersham Pharmacia Biotech Inc, Piscataway, N.J.).
Little is known about the signaling mechanisms involved in astrocyte respones to chemokines. To examine components of the RANTES signal transduction pathway, phosphorylation of the MAP kinase kinase (MEK) and mitogen activated protein (MAP) kinases was examined. To minimize basal kinase activity, astrocytes were starved of serum for at least 3 h before treatment with chemokine. Whole cell lysates were separated by SDS-PAGE and examined by Western blot. Antibodies that specifically react with phosphorylated MEK or phosphorylated extracellular signal-related kinase (ERK) were used to detect the active kinases.

astrocytes = assay: ELISA of KC, TNF-α and MCP-1 protein in astrocyte culture supernatants; type: cell-based, mouse; settings: 48 h, 1.5 to 100 ng/ml tested

## RANTES
[1]; 100 ng/ml RANTES
  duration of phosphorylation of MEK, ERK1 and ERK2: over 2 h
  duration of phosphorylation of RSK: over 2 h
  phosphorylation state of Raf-1 Ser 259: dephosphorylation
  time of appearance of phosphorylation of MEK, ERK1 and ERK2: ≤ 5 min
  time of peak phosphorylation of MEK, ERK1 and ERK2: 20 to 60 min
  time of peak phosphorylation of RSK: 60 min
[1]; 100 ng/ml RANTES, Ser381, Thr360/Ser364, Thr574
  time of appearance of phosphorylation of RSK: ≤ 5 min
[1]; 100 ng/ml, 20 min, 5 to 120 min
  phosphorylation of p38 or SAPK/JNK: failed to phosphorylate
astrocytes
  concentration inducing KC protein: ≥ 10 ng/mL
